The target of this test is T1, human orexin type 2 receptor (hOX2R) (Homo sapiens, UniProt O43614).
T1 construct: expressed in transfected cells
T1 sequence (O43614 1-444): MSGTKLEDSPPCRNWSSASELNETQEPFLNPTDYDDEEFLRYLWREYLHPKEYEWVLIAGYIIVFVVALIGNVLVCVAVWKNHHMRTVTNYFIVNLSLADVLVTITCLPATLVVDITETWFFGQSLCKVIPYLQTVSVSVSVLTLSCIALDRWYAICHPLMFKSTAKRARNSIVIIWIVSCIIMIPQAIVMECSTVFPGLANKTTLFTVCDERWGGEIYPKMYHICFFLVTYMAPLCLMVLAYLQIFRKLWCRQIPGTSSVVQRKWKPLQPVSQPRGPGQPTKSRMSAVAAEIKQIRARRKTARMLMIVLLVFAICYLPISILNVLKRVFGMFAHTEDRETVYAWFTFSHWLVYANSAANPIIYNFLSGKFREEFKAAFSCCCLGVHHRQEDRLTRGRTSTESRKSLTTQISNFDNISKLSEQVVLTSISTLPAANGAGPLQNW
As to the kind of experiment: Measurement of orexin type 2 receptor agonist activity (FLIPR calcium fluorescence). The format is cell-based. To be noted: CHO cells expressing hOX2R, FLIPR calcium fluorescence; for EC50: read-out: hOx2 pEC50 (converted); for Emax: CHO, read-out: hOx2 Emax (%). As to the method: The biological activity of the compounds of the present disclosure may be determined in cells stably expressing either orexin type 2 or orexin type 1 receptor. […] The agonist activity of a compound of the present disclosure may be determined by fluorescence value.
Stable cell line generation.
Measurement of orexin type 2 receptor agonist activity. […] As used herein, E. indicates the value at 10 μM concentration when orexin A is converted to a full agonist (maximum value of agonist activity. 100%).

On to `C[C@@H](F)C(=O)N1CC2(CC2)[C@H](NS(=O)(=O)C(F)F)[C@@H]1Cc1cccc(-c2cc(F)cc(F)c2)c1F` [Compound 378, 1,1-difluoro-N-((6S,7S)-5-((R)-2-fluoropropanoyl)-6-((2,3′,5′-trifluoro-[1,1′-biphenyl]-3-yl)methyl)-5-azaspiro[2.4]heptan-7-yl)methanesulfonamide], for which the EC50 is 0.0794 to 1 nM and the Emax is 90 to 100%.
Turning to `O=C(NCC(F)(F)F)N1CC2(CC2)[C@H](NS(=O)(=O)CF)[C@@H]1Cc1cccc(-c2ccccc2)c1F` [Compound 211, (6S,7S)-6-((2-fluoro-[1,1′-biphenyl]-3-yl)methyl)-7-((fluoromethyl)sulfonamido)-N-(2,2,2-trifluoroethyl)-5-azaspiro[2.4]heptane-5-carboxamide], the EC50 is 1 to 10 nM and the Emax is 90 to 100%.
In the case of `CC(F)(F)C(=O)N1CC2(CC2)[C@H](NS(=O)(=O)CF)[C@@H]1Cc1cccc(-c2cccc(F)c2)c1F` [Compound 179, N-((6S,7S)-6-((2,3′-difluoro-[1,1′-biphenyl]-3-yl)methyl)-5-(2,2-difluoropropanoyl)-5-azaspiro[2.4]heptan-7-yl)-1-fluoromethanesulfonamide], the EC50 is 1 to 10 nM and the Emax was in the range of 70 to 80%.
As to `CC(C#N)C(=O)N1CC2(CC2)[C@H](NS(C)(=O)=O)[C@@H]1Cc1cccc(-c2ccccc2)c1F` (stereo partly drawn) [Compound 358, N-((6S,7S)-5-(2-cyanopropanoyl)-6-((2-fluoro-[1,1′-biphenyl]-3-yl)methyl)-5-azaspiro[2.4]heptan-7-yl)methanesulfonamide], the EC50 was 1 to 10 nM and the Emax lay within 90 to 100%.
`O=C([C@H]1CCO1)N1CC2(CC2)[C@H](NS(=O)(=O)C2CC2)[C@@H]1Cc1cccc(-c2ccccc2)c1` [Compound 42, N-((6S,7S)-6-([1,1′-biphenyl]-3-ylmethyl)-5-((R)-oxetane-2-carbonyl)-5-azaspiro[2.4]heptan-7-yl)cyclopropanesulfonamide]: the EC50 is 1 to 10 nM and the Emax was 90 to 100%.
The like results for `C[C@H](CO)NC(=O)N1CC2(CC2)[C@H](NS(=O)(=O)C(F)F)[C@@H]1Cc1cccc(-c2ccccc2)c1F` [Compound 364, (6S,7S)-7-((difluoromethyl)sulfonamido)-6-((2-fluoro-[1,1′-biphenyl]-3-yl)methyl)-N-((R)-1-hydroxypropan-2-yl)-5-azaspiro[2.4]heptane-5-carboxamide] were, in that order, 0.0794 to 1 nM and 90 to 100%.
As for `CS(=O)(=O)N[C@@H]1[C@H](Cc2cccc(-c3ccccc3)c2F)N(C(=O)NCC2COC2)CC12CC2` [Compound 334, (6S,7S)-6-((2-fluoro-[1,1′-biphenyl]-3-yl)methyl)-7-(methylsulfonamido)-N-(oxetan-3-ylmethyl)-5-azaspiro[2.4]heptane-5-carboxamide], the EC50 is 1 to 10 nM and the Emax is 90 to 100%.
For the compound `COCCNC(=O)N1CC2(CC2)[C@H](NS(=O)(=O)CF)[C@@H]1Cc1cccc(-c2ccccc2)c1F` [Compound 357, (6S,7S)-6-((2-fluoro-[1,1′-biphenyl]-3-yl)methyl)-7-((fluoromethyl)sulfonamido)-N-(2-methoxyethyl)-5-azaspiro[2.4]heptane-5-carboxamide], the EC50 is 10 to 100 nM and the Emax was 90 to 100%.
In the case of `CN(C)S(=O)(=O)N[C@@H]1[C@H](Cc2cc(F)cc(-c3ccccc3)c2F)N(C(=O)C2CCO2)CC12CC2` (stereo partly drawn) [Compound 347, N-((6S,7S)-6-((2,5-difluoro-[1,1′-biphenyl]-3-yl)methyl)-5-((R)-oxetane-2-carbonyl)-5-azaspiro[2.4]heptan-7-yl)-N,N-dimethylsulfuric diamide], the EC50 is 1 to 10 nM and the Emax fell in the range of 90 to 100%.

The values above are taken from patent publication US12503475B2 (Centessa Pharmaceuticals (UK) Limited, priority 2020, dated 2025).
